From patent publication US4738977A, “2-pyridylacetic acid derivatives, pharmaceutical composition containing the same and their use in treating ulcers” (Suntory Limited, priority 1985, dated 1988) come the findings set out here.

Where only a bound is given, the exact number is not on record here.

The subject of one series is gastric acid secretion. Put plainly: Action on Gastric Acid Secretion (Shay Rat, pylorus ligation). Format: in vivo, Sprague-Dawley strain male rats. To be noted: intraduodenal immediately after pylorus ligation, 4 h gastric juice. The procedure:
(§1) For the pharmocological examination of the compounds of the present invention, the following tests were carried out to confirm the effect of inhibiting gastric acid secretion and the protective effect of gastric mucosa. For the toxicity, the test compound was orally administered to six mice of one group to determine the toxicity (LD50) thereof.
1. Action on Gastric Acid Secretion (Shay Rat)
Sprague-Dawley strain male rats weighing 200-240 g were used after being starved for 24 hours (water was given ad libitum). Under ether anesthesia, the abdomen was cut and, after ligation of the pylorus part, then closed, and the rat was starved of both food and water. Four hours later the stomach was removed under ether anesthesia and the gastric juice was collected. The gastric juice collected was centrifuged at 3000 rpm for 10 minutes, the volume of the supernatant was measured, and the acidity was determined by titrating 1 ml of the gastric juice with 0.1 N sodium hydroxide solution to pH 7.0. Further, from the amount of gastric juice and the acidity, the acid output (μEg/4h) was calculated; the percentage of inhibition was determined from the following formula, and the percentage of inhibition versus dose (mg/kg) was then plotted on a semi-logarithmic graph to determine the ED50 value. Each test drug was suspended in physiological saline with a few drops of Tween 80 (available from Nakarai Chemicals Ltd.,) and administered into the duodenum at a proportion of 0.2 ml/100 g-body weight immediately after pylorus ligation. [formula]

A short description of series [1]: Action on Hydrochloric Acid Plus Ethanol Induced Ulcer. Format: in vivo, Sprague-Dawley strain male rats. To be noted: rat, oral 30 minutes before HCl-ethanol. The procedure: 2. Action on Hydrochloric Acid Plus Ethanol Induced Ulcer
Sprague-Dawley strain male rats weighing 200-240 g were used after starving for 24 hours. To each rat, a 60% ethanolic solution containing 150 mM of hydrochloric acid was administered orally at a volume of 0.5 ml/100 g-body weight, and the stomach was removed under ether anesthesia 1 hour later. Into the stomach, 10 ml of a 2% formalin solution was injected, and further the stomach was then immersed in a 2% formalin solution for 15 minutes to fix the inner and outer wall of the stomach. The stomach was cut open along the greater curvature, and the length of the damage generated at the glandular portion of the stomach was measured, and the sum of the lengths of the damages of gastric mucosa per one rat was defined as the lesion index (mm), which was compared with a control group to calculate the percentage of inhibition according to the formula shown below, and then the percentage of inhibition versus dose (mg/kg) was plotted on a semi-logarithmic graph to determine the ED50 value. Each test drug was suspended in physiological saline a few drops of Tween 80 and administered orally 30 minutes before administration of the hydrochloric acid ethanolic solution. [formula]

A short description of the next series: Toxicity (LD50) in mouse. Conditions: in vivo, oral, six mice of one group. The procedure:
as §1

A short description of series [2]: Anti-Aspirin Ulcer Action. Format: in vivo, Sprague-Dawley-strain male rats. Conditions: rat, into the duodenum, aspirin 150 mg/kg oral, 5 hours. The procedure: 3. Anti-Aspirin Ulcer Action
Sprague-Dawley-strain male rats weighing about 220 g were starved for 24 hours, and with pylorus being ligated under ether anesthesia, the test drug was administered into the duodenum. After recovery from ether anesthesia, 150 mg/kg of aspirin (suspended in 1% CMC) was orally administered. Five hours later, the stomach was removed under ether anesthesia, 10 ml of 2% formalin solution was injected into the stomach, and the stomach was then immersed in a 2% formalin solution for about 15 minutes. The stomach was then cut open along the greater curvature and the length of the damage generated at the glandular portion of the stomach was measured under dissecting microscope (×10) and the sum of the lengths per one rat (mm) was defined as the lesion index. The ED50 value was calculated as described before.

Series [3] can be described thus: Anti-Duodenal Ulcer Action. Conditions: rat, indomethacin plus histamine 2HCl. Format: in vivo, Sprague-Dawley-strain male rats. The procedure: 6. Anti-Duodenal Ulcer Action
Sprague-Dawley-strain male rats weighing 200-220 g were starved for 24 hours, and indomethacin (suspended in saline with Tween 80) and histamine 2HCl (dissolved in 10% gelatin solution) were administered following the time schedule shown below. Then, under ether anesthesis, stomach and the duodenal part were removed and 2% formalin solution was injected thereinto. Further, they were immersed in 2% formalin solution for about 15 minutes, and then cut open along the greater curvature to the duodenal part, and the number and area (length in the case of linear ulcer) of the mucosa damages generated at the Corpus, Antrum and Duodenum respectively were measured under stereoscopic microscope (×10), and the sum of the area (mm^2) per one rat was defined as lesion index. The ED50 value was calculated as described before. [drawing 32]

The nature of series [4]: Anti-Indomethacin Ulcer Action. Format: in vivo, Sprague-Dawley-strain male rats. To be noted: rat, 30 minutes before indomethacin 30 mg/kg s.c., 5 hours. The procedure:
4. Anti-Indomethacin Ulcer Action
Sprague-Dawley-strain male rats weighing about 200-220 g were starved for 24 hours, and 30 mg/kg of indomethacin (suspended in 1% CMC) was administered subcutaneously. After five hours, the stomach was removed under ether anesthesia, and subsequently the same treatment as in the case of an aspirin ulcer was carried out and the sum of the length (mm) of the damage produced at the glandular portion of the stomach per one rat was defined as lesion index. The test drug was administered 30 minutes before administration of indomethacin. The ED50 value was calculated as described before.

Another series is described as follows: Anti Stress Ulcer. Format: in vivo, Sprague-Dawley-strain male rats. To be noted: rat, oral 30 minutes before water immersion stress at 23° C., 5 hours; read-out: Action on anti-stress ulcer (ED50). The procedure:
Sprague-Dawley-strain male rats weighing about 240-260 g were starved for 24 hours, and, 30 minutes after oral administration of the test drug, the rat was placed in a stress cage and stress was loaded by immersing the rat into a water tank maintained at 23° C. to the xiphisternum of the chest. Five hours later, the stomach was removed under ether anesthesia, the same treatment as in the case of aspirin ulcer was applied, and the sum of the lengths (mm) of the mucosa damage generated at the glandular portion of the stomach was defined as the lesion index. The ED50 value was calculated as described before.

Another series in a line: Toxicity (LD50) in rat. To be noted: in vivo, oral.

As a reminder, the ED50 is the midpoint of the dose-response relation. In the case of `CCOC(=O)C(C(=S)NC)c1ccccn1` (stereo not drawn) [Example 1, ethyl 2-methylthiocarbamoyl-2-(2-pyridyl)acetate], in the series on gastric acid secretion, the 50% effective dose (ED50) was 2.4 mg/kg.

Turning to `CCNC(=S)C(C(=O)OCC)c1ccccn1` (stereo not drawn) [Example 2, Ethyl 2-ethylthiocarbamoyl-2-(2-pyridyl)acetate], the ED50 with gastric acid secretion worked out at 4 mg/kg; in series [1] it was 6.8 mg/kg.

In the series with gastric acid secretion, `C=CCNC(=S)C(C(=O)OCC)c1ccccn1` (stereo not drawn) [Example 3, Ethyl 2-allylthiocarbamoyl-2-(2-pyridyl)acetate] yielded an ED50 of 3.8 mg/kg.

Molecule `CCOC(=O)C(C(=S)NC1CCCCC1)c1ccccn1` (stereo not drawn) [Example 4, Ethyl 2-cyclohexylthiocarbamoyl-2-(2-pyridyl)acetate] returned an ED50 in the series with gastric acid secretion of 15.5 mg/kg.

As a reminder, the LD50 is the dose at which mortality reaches 50%. A low value points to a more toxic substance. Regarding `CCOC(=O)C(C(=S)Nc1ccccc1)c1ccccn1` (stereo not drawn) [Example 6, Ethyl 2-phenylthiocarbamoyl-2-(2-pyridyl)acetate], the ED50 was determined as 9.3 mg/kg in the series with gastric acid secretion and 3.4 mg/kg in series [1]. For the same molecule, the LD50 in “Toxicity (LD50) in mouse” is above 1300 mg/kg.

`CNC(=S)C(C(=O)OCc1ccccc1)c1ccccn1` (stereo not drawn) [Example 8, Benzyl 2-methylthiocarbamoyl-2-(2-pyridyl)acetate] showed an ED50 in the series with gastric acid secretion of 12.3 mg/kg.

Consider `CNC(=S)C(C(=O)OCC=C(C)C)c1ccccn1` (stereo not drawn) [Example 9, Prenyl 2-methylthiocarbamoyl-2-(2-pyridyl)acetate], for which the ED50 in the series on gastric acid secretion stood at 3.5 mg/kg; in series [1] it was 1.1 mg/kg.

On to `C=CCNC(=S)C(C(=O)OCC=C(C)C)c1ccccn1` (stereo not drawn) [Example 10, Prenyl 2-allylthiocarbamoyl-2-(2-pyridyl)acetate], for which the figures for the ED50 (in the series with gastric acid secretion; in series [1]) were 4.4 mg/kg and 7.7 mg/kg, respectively.

As for `CNC(=S)C(C(=O)OC/C=C(\C)CCC=C(C)C)c1ccccn1` (stereo not drawn) [Example 12, Geranyl 2-methylthiocarbamoyl-2-(2-pyridyl)acetate], the ED50 came out at 5 mg/kg in the series with gastric acid secretion; 0.8 mg/kg in series [2]; 0.6 mg/kg in series [3]; 0.7 mg/kg in series [4]; 5.3 mg/kg in “Anti Stress Ulcer”; 1.4 mg/kg in series [1]. In the series “Toxicity (LD50) in mouse”, this molecule returned an LD50 above 1300 mg/kg.

Take `CC(C)=CCC/C(C)=C/COC(=O)C(C(=S)Nc1ccccc1)c1ccccn1` (stereo not drawn) [Example 14, Geranyl 2-phenylthiocarbamoyl-2-(2-pyridyl)acetate]: the results for the ED50 (with gastric acid secretion; in series [1]) were 36 mg/kg and 3.7 mg/kg, respectively.

For the molecule `CNC(=S)C(C(=O)OC/C=C(\C)CC/C=C(\C)CCC=C(C)C)c1ccccn1` (stereo not drawn) [Example 15, Farnesyl 2-methylthiocarbamoyl-2-(2-pyridyl)acetate], the values for the ED50 (with gastric acid secretion; in series [1]) were 5.6 mg/kg and 0.3 mg/kg, respectively.

For `CC(C)=CCC/C(C)=C/COC(=O)C(C(N)=S)c1ccccn1` (stereo not drawn) [Example 17, geranyl 2-thiocarbamoyl-2-(2-pyridyl)acetate], the ED50 came to 5.3 mg/kg in the series on gastric acid secretion; 1 mg/kg in series [2]; 1 mg/kg in series [3]; 4.2 mg/kg in “Anti Stress Ulcer”; 2.8 mg/kg in series [1]. For the same molecule, the LD50 in the series “Toxicity (LD50) in rat” is above 2860 mg/kg; in “Toxicity (LD50) in mouse”, above 2000 mg/kg.

Regarding `CC(C)=CCOC(=O)C(C(N)=S)c1ccccn1` (stereo not drawn) [Example 18, Prenyl 2-thiocarbamoyl-2-(2-pyridyl)acetate], the ED50 came out at 7.8 mg/kg with gastric acid secretion and 4.5 mg/kg in series [1].

Molecule `CCCNC(=S)C(C(=O)OCC)c1ccccn1` (stereo not drawn) [Example 19, Ethyl 2-propylthiocarbamoyl-2-(2-pyridyl)acetate] had an ED50 with gastric acid secretion of 3.8 mg/kg.

As for `CCOC(=O)C(C(=S)NCCCO)c1ccccn1` (stereo not drawn) [Example 20, Ethyl 2-(3-hydroxypropyl)thiocarbamoyl-2(2-pyridyl)acetate], the ED50 in series [1] is 2.3 mg/kg.

In the series on gastric acid secretion, `CCOC(=O)C(C(=S)NCc1ccccn1)c1ccccn1` (stereo not drawn) [Example 24, Ethyl 2-(2-pyridyl)methylthiocarbamoyl-2(2-pyridyl)acetate] showed an ED50 of 6.4 mg/kg.
